Experiments:
[1] = test system: antigen-induced airway hyperreactivity; assay: Antigen-induced airway hyperactivity assay in ovalbumin-sensitized guinea pigs; assay type: in vivo, guinea pig; conditions: for Increase in Airway Resistance (Area Under Curve) / Dynamic Lung Compliance (Area Under Curve): 24 hours prior to antigen challenge, histamine challenge i.v.; for Increase in Airway Resistance (Area Under Curve): Saline 3490, OVA (no treatment) 12586; for Dynamic Lung Compliance (Area Under Curve): Saline −799, OVA (no treatment) −1386
Description: Antigen sensitization and challenge: Male Hartley guinea pigs (225-250 g) were sensitized with ovalbumin (0.5 ml of 1% solution, i.p. and s.c.) on day 1 (Aug. 25, 2008). On day 4 (Aug. 28, 2008), animals received a booster injection (i.p.) of 0.5 ml of 1% ovalbumin. On day 21 (Sep. 16, 2008), animals were orally dosed (2 ml/kg) with either vehicle (0.5% methylcellulose/0.2% Tween 80) or compound(s) 24 hours prior to antigen challenge. Thirty minutes before antigen challenge the animals were also injected with mepyramine (10 mg/kg, i.p.) to prevent anaphylactic collapse. Animals were then exposed for 20 min to an aerosol of 1% ovalbumin using a DeVilbiss Ultraneb nebulizer. Negative control animals were not challenged. Sensitizing solution: One gram (1 g) of albumin from chicken egg white (Sigma A55031G; lot#087K7004) was added to 100 ml of saline and allowed to go into solution.
Airway resistance measurement: Eighteen to twenty four hours after challenge, animals were anesthetized, (0.5 ml dose (i.m.) of cocktail containing ketamine (62 mg/kg), xylazine (30 mg/kg) and Promace (1.5 mg/kg)), surgically prepared and then placed in a whole body plethysmograph. Animals were connected to Ugo-Basile ventilators delivering a tidal volume of 1 ml/100 g at a rate of 50 breaths/minute via a tracheal cannula. The jugular vein is also cannulated for histamine challenge. A-water filled esophageal cannula was placed such that transpulmonary pressure could be recorded. Transpulmonary pressure was measured as the difference between the tracheal and esophageal cannulas using a differential pressure transducer. The volume, airflow, and transpulmonary pressure signals are monitored using a pulmonary analysis system (Buxco XA software) and used to calculate pulmonary resistance (cmH2O/ml/s) and dynamic compliance (ml/cmH20). Airway resistance and dynamic compliance are computed on a breath-by-breath basis. Histamine is administered intravenously and reactivity to increasing concentrations (1-20 μg/kg) assessed.

[2] = Suspension of benzoate salt in water, solid form checked by XRPD and thermal analysis; assay type: physicochemical; conditions: 50 mg/mL free base equivalent in nanopure water, total 29 hours as suspension, then air dried
Description: Sample Preparation: Material was prepared as in the reference example 3 above. A suspension of the benzoate salt was prepared as 50 mg/mL free base equivalent in nanopure water, which was 63.6 mg salt in 1 mL water. Sample was stirred at 500 rpm overnight and allowed to stand for 4 hours before it was centrifuged (total 29 hours as suspension). It was centrifuged at 13000 rpm for 8 minutes and the collected solid was analyzed by XRPD (x-ray power diffraction) as wet sample and evaluated by microscope. The wet solid was then air dried at ambient room temperature overnight to be analyzed as the dry sample by XRPD and thermal analysis. The as is drug substance is compared as the initial material. The XRPD of free base drug substance was also used as the comparison. The benzoate appeared to be a variable hydrate, with the XRPD displaying the same peaks for different amounts of water.
• XRPD Method • Siemens Model D5000 with Cu anticathode • Program: 1.0 Sec. dql • Range: 2° to 40°. […]

[3] = target: T1, recombinant human β tryptase (Homo sapiens, UniProt Q15661); assay: β-Tryptase inhibitory potency, in vitro enzyme assay (IC50 and Ki determination); assay type: biochemical; conditions: 0.5 mM substrate S2366 (2×Km), room temperature, pH 8.2; Ki=IC50/(1+[Substrate]/Km)
T1 construct: made in house; host or cells: yeast cells
T1 sequence (Q15661 31-275): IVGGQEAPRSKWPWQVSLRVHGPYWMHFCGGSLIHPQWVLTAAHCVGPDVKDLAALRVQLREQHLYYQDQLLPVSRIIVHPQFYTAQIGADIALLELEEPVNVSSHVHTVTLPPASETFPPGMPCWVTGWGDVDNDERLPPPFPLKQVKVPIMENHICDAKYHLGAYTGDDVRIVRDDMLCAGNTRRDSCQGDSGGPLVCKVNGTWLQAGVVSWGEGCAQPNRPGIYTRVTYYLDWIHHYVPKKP
Description: Tryptase inhibition activity is confirmed using either isolated human lung tryptase or recombinant human β tryptase expressed in yeast cells. Essentially equivalent results are obtained using isolated native enzyme or the expressed enzyme. The assay procedure employs a 96 well microplate (Costar 3590) using L-pyroglutamyl-L-prolyl-L-arginine-para-nitroanilide (S2366: Quadratech) as substrate (essentially as described by McEuen et. al. Biochem Pharm, 1996, 52, pages 331-340). Assays are performed at room temperature using 0.5 mM substrate (2×Km) in 50 mM Tris (pH 8.2), 100 mM NaCl, 0.05% Tween 20, 50 μg/mL heparin, and the microplate is read on a microplate reader (Beckman Biomek Plate reader) at 405 nm wavelength.
The protocol is essentially the same as above except that the compound is added in duplicates at the following final concentrations: 0.01, 0.03, 0.1, 0.3, 1, 3, 10 μM (All dilutions carried out manually). For every assay, whether single point or IC50 determination, a standard compound is used to derive IC50 for comparison. From the IC50 value, the Ki can be calculated using the following formula: Ki=IC50/(1+[Substrate]/Km).

**Q.** With `COCCn1cc(C(=O)N2CCC(c3cc(CN)ccc3F)CC2)c2c(OC(F)(F)F)ccc(F)c21.COCCn1cc(C(=O)N2CCC(c3cc(CN)ccc3F)CC2)c2c(OC(F)(F)F)ccc(F)c21.O.O.O=C(O)/C=C/C(=O)O.O=C(O)/C=C/C(=O)O.O=C(O)/C=C/C(=O)O` [Fumarate Salt, [4-(5-Aminomethyl-2-fluorophenyl)piperidine-1-yl][7-fluoro-1-(2-methoxyethyl)-4-trifluoromethoxy-1H-indol-3-yl]methanone Sesquifumarate Monohydrate] as the compound, how does the “Increase in Airway Resistance (Area Under Curve)” value (shortened to “Increase in Airway Resistance”) ([1]; 0.01 mg/kg oral) read?
**A.** Its value is 9647 +/− 818.

**Q.** And the “Dynamic Lung Compliance (Area Under Curve)” value (“Dynamic Lung Compliance” for short) ([1]; 0.01 mg/kg oral)?
**A.** The value was −1218 +/− 47.

**Q.** And the “Increase in Airway Resistance” value ([1]; 0.03 mg/kg oral)?
**A.** The value was 8103 +/− 745.

**Q.** What about the “Dynamic Lung Compliance” value ([1]; 0.03 mg/kg oral) of the same compound?
**A.** Its value is −1156 +/− 40.

**Q.** And the “Increase in Airway Resistance” value ([1]; 0.1 mg/kg oral)?
**A.** Its value is 6623 +/− 511.

**Q.** And the “Dynamic Lung Compliance” value ([1]; 0.1 mg/kg oral)?
**A.** The value was −1004 +/− 43.

**Q.** And the “Inhibition of antigen-induced airway hyperreactivity (in words)” value ([1]; dosed 24 hours prior to allergen challenge, guinea pig, oral)?
**A.** Its value is “dose-related inhibition of antigen-induced airway hyperreactivity”.

**Q.** Which “Solid form stability in aqueous suspension (XRPD and thermal analysis)” value [2] does the source give for `COCCn1cc(C(=O)N2CCC(c3cc(CN)ccc3F)CC2)c2c(OC(F)(F)F)ccc(F)c21.O=C(O)c1ccccc1` [benzoate salt, [4-(5-Aminomethyl-2-fluorophenyl)piperidine-1-yl][7-fluoro-1-(2-methoxyethyl)-4-trifluoromethoxy-1H-indol-3-yl]methanone Benzoate] here?
**A.** Its value is “no free base or conversions to hydrate form were noted”.

**Q.** With `COCCn1cc(C(=O)N2CCC(c3cc(CN)ccc3F)CC2)c2c(OC(F)(F)F)ccc(F)c21` [compound of formula I, [4-(5-aminomethyl-2-fluoro-phenyl)-piperidin-1-yl]-[7-fluoro-1-(2-methoxy-ethyl)-4-trifluoromethoxy-1H-indol-3-yl]-methanone] as the compound, how does the Ki [3] read?
**A.** Its Ki is 0.026 ± 0.005 µM.
